Assay results reported in patent EP0501442B1, “8-chloro-benzothiazepine-compound for prophylaxis and treatment of sequelae of cerebral neurocyte necrosis” (priority 1991, dated 1992).

Test: Acute oral toxicity (50 % lethal dose) in mice
Conditions: mouse, in vivo, orally administered to mice, read-out: 50 % lethal dose (LD₅₀)
Experimental: Further, the benzothiazepine derivative (I) or a pharmacologically acceptable salt thereof has low toxicity and high safety. For example, when 2-(4-methoxyphenyl)-3-acetoxy-5-[2-(dimethylamino)ethyl]-8-chloro-2,3-dihydro-1,5-benzothiazepin-4(5H)-one·maleate is orally administered to mice, its 50 % lethal dose (LD₅₀) was about 800 mg/kg.

In the case of `COc1ccc([C@@H]2Sc3cc(Cl)ccc3N(CCN(C)C)C(=O)[C@@H]2OC(C)=O)cc1` [(+)-cis-2-(4-methoxyphenyl)-3-acetoxy-5-[2-(dimethylamino)ethyl]-8-chloro-2,3-dihydro-1,5-benzothiazepin-4(5H)-one·maleate], the LD50 is reported as ~800 mg/kg.
